{
  "source": "patent US20180072675A1",
  "about": "“ANTIMICROBIAL PYRIDINOHYDRAZIDE AND HYDRAZOMETHYLPYRIDINE-BASED AGENTS” (Board of Supervisors of Louisiana State University and …, priority 2015, published 2018)",
  "key": {"[1]": {"test_system": "Candida glabrata (ATCC Accession No. 48435)", "assay": "MIC80 fungal growth inhibition, C. glabrata ATCC 48435", "type": "cell-based", "conditions": "Nakaseomyces glabratus, ATCC48435; Azole-resistant; >80% growth inhibition, visual scoring; read-out: MIC80 C. glabrata ATCC No. 48435", "method": "(§1) The antifungal activity of the pyridinohydrazide and hydrazomethylpyridine derivatives described in the s were evaluated in vitro using Candida albicans (ATCC Accession No. 10231) and Candida glabrata (ATCC Accession No. 48435). In addition, the compounds were evaluated for activity against two previously-described clinical isolates of C. albicans known to have developed azole-resistance. These isolates were obtained over a two year period from a single AIDS patient and the development of the azole-resistance mechanisms have been extensively characterized (White T C. Antimicrob. Agents Chemother. (1997) 41: 1482-1487). MIC assays were performed on the clinical isolates 1 and 17 (annotated TW1 and TW17, respectively), where isolate 1 was used as an azole-susceptible control and isolate 17 was considered azole-resistant. All assays were done in accordance with NCCLS reference documents (Clinical Laboratory and Standards Institute. Reference method for Broth Dilution Antifungal Susceptibility Testing of Yeasts: Approved Standard. M27-A3 2010; 28). The results of these screenings are summarized in Tables 1-9 (Examples 20-27) as the minimum concentrations that inhibited more than 80% of fungal growth (MIC80) as compared to positive controls containing 1% DMSO. Assays were performed in HEPES-buffered RPMI-1640 media. All MIC screens used a visual scoring method as opposed to spectroscopic analysis, due to the altered absorbance spectra of many of the compounds."}, "[2]": {"test_system": "C. albicans clinical isolate 1 (TW1)", "assay": "MIC80 fungal growth inhibition, clinical isolate TW1", "type": "cell-based, Candida albicans", "conditions": "Candida albicans; Azole-susceptible; >80% growth inhibition, visual scoring; read-out: MIC80 TW1", "method": "as §1"}, "[3]": {"test_system": "Candida albicans (ATCC Accession No. 10231)", "assay": "MIC80 fungal growth inhibition, C. albicans ATCC 10231", "type": "cell-based", "conditions": "Candida albicans, ATCC10231; Azole-susceptible; >80% growth inhibition, visual scoring; read-out: MIC80 C. albicans ATCC No. 10231", "method": "as §1"}, "protozoal proliferation": {"test_system": "protozoal proliferation", "assay": "Protozoal proliferation", "type": "cell-based", "conditions": "FIG. 27"}, "[4]": {"test_system": "C. albicans clinical isolate 17 (TW17)", "assay": "MIC80 fungal growth inhibition, clinical isolate TW17", "type": "cell-based, Candida albicans", "conditions": "Candida albicans; Azole-resistant; >80% growth inhibition, visual scoring; read-out: MIC80 TW17", "method": "as §1"}, "[5]": {"test_system": "Candida albicans ATCC Accession No. 10231", "assay": "Checkerboard synergy assay with fluconazole", "type": "cell-based", "method": "Considering that two different modes of activity (cidal and static) were observed depending on the structural motifs present in our analogs, we performed a series of checkerboard assays to determine if representative active compounds were in fact acting in synergy with the azole, fluconazole. Each of these assays tested multiple concentrations of the selected analog in the presence of multiple concentrations of fluconazole. All checkerboard assays were prepared in 96-well plates. 200 μl of previously prepared drug solutions were added to each well in column 2. Using a multichannel pipette, 100 μl from each well in column 2 was serially diluted (1:2) horizontally across the plate, stopping at column 10. Contents of each well were mixed thoroughly. Column 11 was reserved for fluconazole MIC control and contained no other drug. 100 μl of media was added to each well, column 2-10. Each well was mixed thoroughly with a multichannel pipette. 100 μl was then removed and discarded from these wells. 100 μl of previously prepared fluconazole dilution was added to each well in row B. Using a multichannel pipette, 100 μl from each well was serially diluted (1:2) vertically down the plate, stopping at row F. Contents of each well were mixed thoroughly. Row G was reserved for tested drug MIC control and contained no fluconazole. Well G11 contained neither drug and served as a drug-free growth control. The final 100 μl from each well in row F was discarded.\nThe fungal samples were prepared from glycerol stocks of Candida albicans ATCC Accession No. 10231. The inoculum's concentration was adjusted to a McFarland standard between 0.08 and 0.12. Inoculum was then diluted at a ratio of 1:37.5 in buffered media. 100 μl of inoculum-media solution was added to each well. Following inoculation, the 96-well plates were wrapped in parafilm to prevent evaporation and incubated for overnight at 35° C. After 18 h, the wells showing growth were recorded.\nSynergistic activity was determined based on the MIC read from these plates. The fractional inhibitory concentration (FIC) for a given well is the ratio of the minimum inhibitory concentration of one drug A in the presence another drug B to the minimum inhibitory concentration with only drug A. The FIC was calculated for the test drug in each of the wells along the growth/no-growth interface at varying concentrations of fluconazole, then these values were averaged to determine the average FIC for the test drug. The same process was used to calculate the average FIC for fluconazole at varying concentrations of the test drug. The sum of these two FICs gives the FIC index which can be used to determine the synergistic effect between the two drugs (Hsieh et al., Diagn. Microbiol. Infect. Dis. (1993) 16: 343-349). An FIC index value less than 1 indicated synergistic interactions between the two drugs while an FIC index value greater than or equal to 1 indicated antagonistic interactions."}, "Candida strain TW17": {"test_system": "Candida strain TW17", "assay": "Time-kill assay", "type": "cell-based, Candida albicans", "conditions": "four times the MIC for TW17, 48 h", "method": "FIG. 9 illustrates time-kill assays, for representative analogs that were active against the azole-resistant TW17, to determine the cidal or static nature of the analog tested. 100 μl of each sample was spread onto YM agar plates with a sterile bent spreading rod. Plates were incubated at 35° C. overnight and colonies were then counted on each plate.\nOne of the objectives of this study was to determine the cidal or static nature of the analogs that were active against such as TW17, the azole-resistant clinical isolate. Azoles affect Candida spp. by inhibiting ergosterol biosynthesis, and ultimately prevent their reproduction. This effect has led to the classification of azoles as fungistats. Determining the fungistatic or fungicidal nature of the synthesized compounds of the present disclosure allows a comparison to azoles, in addition to improving the understanding of how the structural motifs might lend toward an alternate mechanism of action. Therefore, time-kill assays were performed using the representative analogs that were active against the azole-resistant TW17 at concentrations at or below 8 μg/mL.\nSolid drugs were dissolved in DMSO to a concentration of 10 mg/ml. This stock solution was then further diluted in water to the desired experimental concentration, determined to be four times that of the MIC for the Candida strain TW17 (as reported in the Tables).\nIndividual colonies of TW17 were suspended in 5 ml of sterile water and adjusted to achieve a McFarland reading between 0.08 and 0.12. The inoculum was then further diluted in sterile water at a ratio of 1:100. Three […] tissue culture tubes were prepared by combining 2.5 ml of above diluted inoculum, 21.7 ml of HEPES buffered RPMI-1640 media, and 800 μl of experimental drug dilution. A “Growth Control” tube was prepared by combining 2.5 ml of inoculum, 21.7 HEPES buffered RPMI-1640 media, and 800 μl of water-DMSO solution equal to the DMSO concentration of the experimental drug dilution. A “Sterile Control” tube was prepared by combining 24.2 ml of HEPES-buffered RPMI-1640 media and 800 μl of water-DMSO solution as in the “Growth Control”. All tubes were incubated for 48 hours at 35° C., 50 rpm. 500 μl samples were taken from the tubes at time points of predetermined intervals during this incubation.\nTime points for the “Kill-Curve” and “Growth Control” tubes were taken at 0, 1, 2, 4, 6, 8, 24, and 48 h after the start of incubation. Time points for “Sterile Control” were taken at 0 and 48 hours. Each time point sample was serially diluted 1:10 in sterile 0.9% NaCl solution up to 5 times. 100 μl of each sample was spread onto YM agar plates with a sterile bent spreading rod. Plates were incubated at 35° C. overnight and colonies were then counted on each plate. Colonies on plates from diluted time points were used to estimate uncountable undiluted samples. The number of colonies in undiluted samples was estimated to be 10^n times greater than the diluted sample, where n was the number of dilutions made."}},
  "note": "Entries after “also recorded” stand apart in the source; their conditions may differ.",
  "data": [
    {"smiles": "O=C(N/N=C/c1cc(Br)ccc1O)c1ccccn1", "note": "[AR5, (E)-N′-(5-bromo-2-hydroxybenzylidene)picolinohydrazide]", "values": [
      {"measurement": "MIC80", "setting": "[1]", "value": 4, "unit": "µg/mL"},
      {"measurement": "MIC80", "setting": "[2]", "value": 2, "unit": "µg/mL"},
      {"measurement": "MIC80", "setting": "[3]", "value": 1, "unit": "µg/mL"},
      {"measurement": "effect on protozoal proliferation", "setting": "protozoal proliferation", "value": "reduce protozoal proliferation"},
      {"measurement": "MIC80", "setting": "[4]", "value": 4, "unit": "µg/mL"},
      {"measurement": "FIC Fluc", "setting": "[5]; average FIC of fluconazole at varying concentrations of the test drug", "value": 1.00},
      {"measurement": "FIC Test", "setting": "[5]; average FIC of the test drug at varying concentrations of fluconazole", "value": 0.90},
      {"measurement": "Activity (interaction with fluconazole)", "setting": "[5]; from FIC index", "value": "Antagonistic"},
      {"measurement": "FIC Index", "setting": "[5]; sum of the two FICs, <1 synergistic, >=1 antagonistic", "value": 1.90},
      {"measurement": "Cidal vs Static", "setting": "Candida strain TW17", "value": "fungicidal; also recorded: Cidal"}
    ]}
  ]
}
